Results reported in patent publication US11534425B2, “Compounds for the treatment of acute organ injury” (priority 2018, dated 2022).
Read-outs that look alike come from different tables or passages of the source.

Legend:
[1] = test system: Primary rat cortical neurons; experiment: Staurosporine (STS) injury assay, cell viability by CELLTITER-BLUE; type: cell-based
Method: Primary rat cortical neurons were cultured on poly-D-lysine coated 96-well plates at a density of 1×10^5/well in Neurobasal medium+B27 supplement. 1/2 media swaps were given every 3 d. ARA-c was added to the medium on day in vitro (DIV) 3 to inhibit glial proliferation. On DIV9, maintenance media (2/3) was collected from plates and mixed with fresh media (1/3) to obtain ˜67% conditioned medium (CM). Staurosporine (STS) and drugs were prepared in 100% DMSO and diluted in CM. Uninjured controls received an equal concentration of DMSO. Primary cortical neurons were incubated with +STS+drugs for in 100 μL/well CM. Cell viability was determined 24 h later (DIV10) by CELLTITER-BLUE® (n=10 replicates/group). […] Data were analyzed by 1-Way-ANOVA and Newman-Keuls Multiple Comparison Test. Graphs show Mean+SEM. Data are significant at p<0.05. Conclusion: NSC74429 is a potent a neuroprotectant as determined by the STS cell death assay.

pAKT473 [2] = details: primary rat cortical neurons, Jackson et al., 2013; cited from earlier work
[3] = test system: Primary rat cortical neurons; experiment: Hydrogen peroxide (H2O2)-oxidative stress assay, cell viability by CELLTITER-BLUE; type: cell-based; details: 40 μM H2O2 35 min, viability 24 h later
Method: (§1) Primary rat cortical neurons were cultured on poly-D-lysine coated 96-well plates at a density of 1×10^5/well in Neurobasal medium+B27 supplement. 1/2 media swaps were given every 3 d. ARA-c was added to the maintenance medium on day in vitro (DIV) 3 to inhibit glial proliferation. (A) On DIV9, maintenance media (2/3) was collected from plates and mixed with fresh media (1/3) to obtain 67% conditioned medium (CM). Cells were washed once with balanced salt solution (BSS supplemented with 5 mM glucose; 200 μL/well). BSS was replaced with BSS containing 10 μM glutamic acid, and incubated on cells 5 min to induce excitotoxicity. Glutamic acid/BSS was replaced with 100 μL/well CM, containing DMSO (control) or drugs, and returned to the incubator for 24 h (n=10 replicates/group). (B) DIV9 cells were washed once with BSS, injured 35 min with 40 μM H2O2 dissolved in BSS, and replaced with 100 μL/well CM containing DMSO (control) or drugs. Cell viability was determined 24 h later (DIV10) by addition of 20 μL/well CELLTITER-BLUE® (n=10 replicates/group). Data were analyzed by 1-Way-ANOVA and Newman-Keuls Multiple Comparison Test. Graphs show Mean+SEM. Data are significant at p<0.05. Excitotoxicity is a major cause of neuronal death across the spectrum of CNS injury.

C57BL/6 mice = experiment: Adult mouse controlled cortical impact plus hemorrhagic shock (CCI+HS), CA1/CA3 cell counts; type: in vivo
Description: Traumatic brain injury (TBI) compromises the BBB, making it easier for drugs to reach injured tissue, and TBI is also worsened by secondary injuries such as hypotension due to profound blood loss (HS). Adult male ˜28 g C57BL/6 mice were anesthetized with isoflurane via a nose cone (4% induction/2% maintenance on 70% N2O/30% O2), given preparatory surgery, and sequentially injured by (1) a CCI-TBI and (2) HS, as reported by our group (Jackson et al., 2015). In brief, mice were given a moderate CCI above the left parietal cortex (impact tip velocity 5 m/s and cortical depth 1.0 mm). 5 min later, HS was initiated by withdrawing blood until mean arterial pressure (MAP) decreased from ˜90 mmHG (normal) to ˜25-27 mmHG (hypotensive). HS was maintained for 35 min. Mice were then volume resuscitated using lactated ringer's (LR) solution for 90 min to mimic pre-hospital care (targeted MAP of ˜70 mmHG). Finally, shed blood was returned over 15 min to mimic definitive hospital care and MAP returned to normal. (A-D) In a first study we measured the acute neuroprotective effects of NSC74429 on hippocampal injury 48 h after CCI+HS. Mice were given an intravenous bolus injection of vehicle (5% DMSO in D5W) or NSC74429 (1 mg/kg or 3 mg/kg) immediately after the hospital phase (i.e. […] after the initial CCI-injury). A second intraperitoneal injection was administered 24 h later, and brains collected for CA1/CA3 cell counts 48 h post-injury. One animal died in the vehicle-injury group and four animals died in the 3 mg/kg NSC74429 group prior to tissue collection. (A and B) Scatter plots show CA1/CA3 cell counts in surviving animals. 1 mg/kg NSC74429 was neuroprotective. Hippocampal survival bifurcated in the 3 mg/kg high-dose group; some animals had improved CA1/CA3 survival vs. vehicle-injury whereas others were clearly made worse. Given that mortality was also higher with 3 mg/kg NSC74429 (4 vs. 1), we eliminated the high-dose group from further statistical analysis. (C and D) Statistical analysis of CA1/CA3 cell counts. […] (E and F) A second study was done to test if NSC74429 neuroprotection is sustained chronically by 7 d post-injury. Only the low dose (1 mg/kg) was tested. Mice were injured as described above, given intravenous injection of vehicle or 1 mg/kg drug immediately following the hospital phase of HS, supplemental injections administered intraperitoneally at 24 h, 48 h, and 72 h post-injury, and brains collected for histology 7 d post-injury. […] Data were analyzed by 1-Way-ANOVA and Newman-Keuls Multiple Comparison Test. Graphs show Mean+SEM. Data are significant at p<0.05. Injured rats were randomized to treatment group, and drugs provided to a technician in de-identified coded vials. The technician that administered drug injections, and the technician that analyzed histology, were blinded to treatment group. Conclusion: NSC74429 is neuroprotective in the acute and chronic phase after injury in a severe trauma model.

pAKT473 [4] = experiment: pAKT473 levels in cultured primary rat cortical neurons (Western blots); type: cell-based; details: 25 μM or 50 μM, 35 min
Method: We tested if NSC74429 also increases pAKT473 levels using our published protocol. In brief, uninjured primary rat cortical neurons were maintained in Neurobasal+B27. Prior to treatments, neurons were given a supplement starvation period by exchanging maintenance media with basic Neurobasal (i.e. minus B27), and returned to a 37° C. incubator for 2 h. Neurons were subsequently treated 35 min with DMSO, 25 μM NSC74429, or 50 μM NSC74429 (diluted in basic Neurobasal). Western blots confirm that PHLPP1 and PHLPP2 isoforms are detected in rat cortical neurons. […] PHLPP inhibitors increase pAKT473 levels but NSC74429 had the opposite effect. Moreover, inhibition of pAKT473 is expected to promote cell death yet NSC74429 (AKT inhibitor) was neuroprotective as shown in FIG. 1 and FIG. 2. […] Data were analyzed by 1-Way-ANOVA and Newman-Keuls Multiple Comparison Test. Graphs show Mean+SEM. Data are significant at p<0.05. Conclusion: Together PHLPP1 and PHLPP2 regulate the dephosphorylation of pAKT473 on AKT1, AKT2, and AKT3 isoforms.

Sprague Dawley rats = experiment: Adult rat asphyxia cardiac arrest (ACA), hippocampal CA1 cell survival counts; type: in vivo; details: 1 mg/kg or 3 mg/kg, given 5 min after ROSC
Description: We tested the therapeutic efficacy of NSC74429 in a model of brain injury (ACA) in which the blood brain barrier (BBB) remains intact. Male ˜300 g Sprague Dawley rats were anesthetized on isoflurane (4% induction/2% maintenance on 50% O2/50% N2) and mechanically ventilated. The left femoral artery and vein were accessed and cannulated with heparinized-saline filled PE-50 tubing. EKG, mean arterial pressure (MAP), rectal temperature, and pectoralis temperature were continuously monitored. Body temperature was maintained to 37° C. Arterial blood gas measurements were analyzed and ventilator settings adjusted as needed to achieve normal PaO2 and PaCO2. 2 mg/kg cisatracurium was administered 5 min prior to CA to stop spontaneous breathing (i.e. neuromuscular blockage). The ventilator was disconnected. Mean arterial pressure (MAP) decreased over 2-3 min until reaching target no-flow (<10 mmHG). […] Data were analyzed by 1-Way-ANOVA and Newman-Keuls Multiple Comparison Test. […] The technician that administered drug injections, and the technician that analyzed histology, were blinded to treatment group. A single value in the vehicle-injury group (indicated by a * in the table above) was a statistical outlier as determined by the Dixon's test and was removed from statistical analysis. […]

pAKT473 [5] = experiment: pAKT473 levels in vivo, injured hippocampus after ACA; details: rat ACA, 1 or 3 mg/kg, iv 5 min after ROSC and ip 24 h post-injury, tissue 1 h after final injection
Method: A separate cohort of rats was used to generate hippocampal tissue homogenates. Rats were given ACA and subsequently treated with (a) vehicle, (b) 1 mg/kg NSC74429, or (c) 3 mg/kg NSC74429. Treatments were administered by iv bolus injection 5 min after ROSC, and a 2nd ip bolus injection 24 h post-injury. Shams were administered vehicle injections and preparatory surgery but were not injured. Rats were euthanized 1 h following the final drug injection and brain tissue collected for protein analysis. […] Data were analyzed by 1-Way-ANOVA and Newman-Keuls Multiple Comparison Test. Injured rats were randomized to treatment group, and drugs provided to a technician in de-identified coded vials. The technician that administered drug injections was blinded to treatment group. Graphs show Mean+SEM. Data are significant at p<0.05.

[6] = test system: Primary rat cortical neurons; experiment: Glutamate-excitotoxicity assay, cell viability by CELLTITER-BLUE; type: cell-based; details: 10 μM glutamic acid 5 min, viability 24 h later
Method: as §1

PHLPP2 = details: reported by Sierecki and colleagues; read-out: IC50 to block PHLPP2; cited from earlier work
[7] = 1 mg/kg iv then ip at 24 h, 48 h post-injury

Which “neuroprotection, cell viability after STS injury” value (“neuroprotection, cell viability” for short) ([1]; viability 24 h later (DIV10)) does the source give for `COc1cc(NCCC2CCCCN2)c2ncccc2c1` (stereo not shown) [NSC13378] here?
The value was “failed to protect”.

For `CN(C)CCOC(=O)c1ccc(N)cc1` [NSC25247], which “neuroprotection, cell viability” value ([1]; 50 μM, viability 24 h later) is on record?
The value was “mildly neuroprotective”.

For `Cc1cc(N=Nc2ccc(N=Nc3ccc(O)c(C(=O)[O-])c3)cc2)c(N)cc1N.[Na+]` [NSC45586], which pAKT473 levels (pAKT473 [2]) is on record?
The pAKT473 levels was “dose-dependently increase pAKT473 levels”.

With `S=C(Nc1ccc2cn[nH]c2c1)Nc1ccc2cn[nH]c2c1` [NSC74429] as the compound, how does the “cell death induced by oxidative stress” value [3] read?
Its value is “decreases cell death”.

What about the CA1 survival (C57BL/6 mice; 1 mg/kg iv then ip at 24, 48, 72 h, 7 d post-injury) of the same compound?
The CA1 survival was “equivalent in both injured groups”.

What about the “CA3 tissue sparing, above vehicle injury” value (C57BL/6 mice; 1 mg/kg iv then ip at 24, 48, 72 h, 7 d post-injury, not statistically significant) of the same compound?
Its value is roughly 17.5%.

And the CA1 cell survival (C57BL/6 mice; [7])?
The CA1 cell survival was “significantly increased”.

What about the CA3 cell survival (C57BL/6 mice; [7]) of the same compound?
The CA3 cell survival was “significantly increased”.

And the “hippocampal CA1/CA3 survival” value (C57BL/6 mice; 3 mg/kg high-dose group, 48 h post-injury)?
Its value is “bifurcated”.

And the “mortality (animals died prior to tissue collection)” value (C57BL/6 mice; 3 mg/kg, vs. 1 in vehicle-injury group)?
Its value is 4 animals.

And the “pmTOR2448 (other phosphorylated proteins)” value (pAKT473 [4]; uninjured neurons)?
The value was “did not affect”.

What about the pAKT473 levels (pAKT473 [4]; uninjured neurons after 2 h supplement starvation) of the same compound?
Its pAKT473 levels is “dose-dependently decreased pAKT473 levels”.

What about the “neuroprotection, cell viability” value ([1]; 25-50 μM, viability 24 h later) of the same compound?
Its value is “potently neuroprotective”.

And the “hippocampal CA1 cell survival (neuroprotection)” value (Sprague Dawley rats)?
The value was “neuroprotective”.

What about the “pAKT473 levels in the injured hippocampus” value (pAKT473 [5]) of the same compound?
The value was “did not increase pAKT473 levels”.

And the glutamate-induced neuronal death ([6]; 25 μM)?
Its glutamate-induced neuronal death is “insufficient to decrease glutamate-induced neuronal death”.

And the “glutamate-induced neuronal death (excitotoxic injury)” value ([6]; 50 μM)?
The value was “reduced excitotoxic injury”.

What about the IC50 (PHLPP2) of the same compound?
Its IC50 is 5 µM.

Which pAKT473 levels (pAKT473 [2]) does the source give for `Nc1c(S(=O)(=O)O)cc(Nc2cccc(S(N)(=O)=O)c2)c2c1C(=O)c1ccccc1C2=O` [NSC117079] here?
Its pAKT473 levels is “dose-dependently increase pAKT473 levels”.
